{"source": "patent US20100048594A1", "about": "“USE OF CYTOHESIN INHIBITORS FOR CHEMICALLY INDUCING LONGEVITY” (RHEINISCHE FRIEDRICH-WILHELMS UNIVERSITAT, priority 2006, published 2010)", "key": {"[1]": {"test_system": "Drosophila eukaryotic initiation factor 4E binding protein (d4EBP, Thor)", "assay": "Transcription rate of insulin target gene d4EBP in insulin-treated Drosophila S2 cells (real-time PCR)", "type": "cell-based", "settings": "100 μM compound, 10 μg/ml human insulin, insulin alone less than 35%", "method": "Drosophila Schneider 2 (S2) cells were cultivated in Schneider's Medium (PAN company) with 10% heat-inactivated fetal calf serum (FCS). 2×10^6 cells were drawn into 35 mm vessels at 25° C. to 80% confluence, washed one time in phosphate buffered saline solution (1×PBS, Gibco), and transferred for twelve hours to Schneider's Medium, without FCS. The cells were then preincubated for two hours with 0.5% DMSO containing Schneider's Medium, without FCS, with or without the compound according to formula (9) or formula (25), with the final concentrations of the compounds according to formulas (9) and (25) being 1 μM, 10 μM and 100 μM. This was followed by a four-hour stimulation with 10 μg/ml human insulin (Sigma).\nAfter washing the cells two times with PBS, total RNA was then isolated from the cells using the NucleoSpin RNA II Kit (Macherey & Nagel), according to the manufacturer's instructions. The first strain cDNA synthesis was performed with every 500 ng RNA, using the QuantiTect Reverse Transcription Kit (Qiagen), according to the manufacturer's instructions. […]\nThe activity of the insulin signaling pathway was determined from the transcription rate of the insulin target gene Drosophila eukaryotic initiation factor 4E binding protein (d4EBP, Thor). […]"}, "[2]": {"test_system": "Drosophila melanogaster flies", "assay": "Lifespan of adult Drosophila melanogaster flies fed with compound (Kaplan-Meier analysis)", "type": "in vivo", "settings": "10 μM compound in food; for Average Lifespan: ±margin of error", "method": "The experiments were conducted on isogenic flies (Drosophila melanogaster) of the genotype white^1118, also called white^− or w^−, and mutants (w^1118; step^k08110/step^SH0323) (strain # 10770 from the public Bloomington Stock Center, genotype: step^k08110/CyO, URL http://flybase.bio.indiana.edu/reports/FBstOO10770.html; strain # FBst0103734 from the public Szeged Stock Center, genotype: step^SH0323/CyO, URL http://flybase.bio.indiana.edu/reports/FBst0103734.html), in which the Drosophila cytohesin steppke is mutated and therefore defective.\nBy crossing the two steppke alleles k08110 and SH0323 eight times with whites flies, an isogenic genetic background is produced, which permits a comparison of the lifespans between the genotypes of the type white^1118 and the mutants (w^1118; step^k08110/step^SH0323). The average lifespan of the wild type was approximately 25 days, while that of the mutants (w^1118; step^k08110/step^SH0323) was approximately 30 days.\nTo produce the special food, 32.5 g autolysed yeast (Fluka (Catalog No. 73145)) and 10 g agar (Difco (Catalog No. 281230)) were mixed with 300 ml water (demineralized, Roth (Catalog No. 3175)) and autoclaved at 120° C. for 20 minutes. The solution was cooled to 60° C., and 32.5 g α-D(+)-glucose monohydrate (Roth (Catalog No. 6887)) were added under stirring. 15 ml 10% (w/v) p-hydroxybenzoic acid methylester (Sigma (Catalog No. H3647)) solution dissolved in 70% (v/v) ethanol (Roth (Catalog No. 9065)) and 1.35 ml dimethylsulfoxide (DMSO, Roth (Catalog No. A994)) were then added. Water was then added to this basic solution to a volume of 450 ml, which was then held at a temperature of 60° C. For the control food, 50 ml of a 0.7% (v/v) DMSO solution in water were produced. For the food containing the compounds according to formulas (9) or (25), 0.2 ml of a 25 mM solution of the compounds according to formula (9) or (25) in 100% DMSO were added to 49.8 ml of a 0.3012% DMSO solution in water.\nThese 50 ml of the control solutions and the solutions containing the compounds according to formula (9) or (25) were each mixed with 450 ml of the basic solution, and were placed in 4 ml amounts in polystyrene containers (height 9.5 cm, diameter 2.4 cm, sealed with cotton wadding) to maintain the flies. After 24 hours, the cooled containers were sealed with cotton wadding and stored at 4° C.\nThe final concentration of the food components in the control food was 6.5% (w/v) autolysed yeast, 6.5% (w/v) α-D(+)-glucose monohydrate, 2% (w/v) agar, 0.3% (w/v) p-hydroxybenzoic acid methylester, 2.1% ethanol (v/v), 0.34% (v/v) DMSO.\n(§1) The final concentration of the food components in the food containing the compound according to formula (9) was 6.5% (w/v) autolysed yeast, 6.5% (w/v) α-D(+)-glucose monohydrate, 2% (w/v) agar, 0.3% (w/v) p-hydroxybenzoic acid methylester, 2.1% ethanol (v/v), 0.34% (v/v) DMSO, 10 μM compound according to formula (9).\nas §1, with “(25)” for “(9)”, “(25).” for “(9).”\nThe larvae were maintained on standard fly food containing 1.1% (w/v) brewer's yeast (“Gewürzmühle Brecht” company), 5.43% (w/v) cornmeal, 0.53% (w/v) filamentous agar (“Gewürzmühle Brecht” company), 6.6% (v/v) sugar beet syrup (Grafschafter), 1.3% (v/v) ethanol (Roth company), 0.13% (w/v) p-hydroxybenzoic acid methylester (Sigma).\n24 hours after emergence of the imagines, the adult flies, females and males were separated under a brief CO2 anesthetization lasting less than 2 minutes. During the 24 hours after emergence, the animals were fed using standard fly food. […]"}}}
{"smiles": "COc1nc(-c2ccc(C(C)(C)C)cc2)n(-c2ccc(NC(=O)CSc3ccccc3)cc2)n1", "note": "[Compound (25)]", "values": [{"measurement": "transcription rate of d4EBP as % of that of the untreated control groups", "setting": "[1]", "value": "more than 95%"}, {"measurement": "change in lifespan", "setting": "[2]; control animals and mutants", "value": "no significant change"}, {"measurement": "Average Lifespan", "setting": "[2]; genotype w^1118, female flies", "value": "25.0 (±0.7) Days"}, {"measurement": "Average Lifespan", "setting": "[2]; genotype w^1118, step^k08110/step^SH0323 mutants, female flies", "value": "29.3 (±0.7) Days"}]}
